Laboratory results taken from ChEMBL document CHEMBL1125472, “5-lipoxygenase: properties, pharmacology, and the quinolinyl(bridged)aryl class of inhibitors” (J Med Chem, 1992).

Assays:
[1] = target: T1, Polyunsaturated fatty acid 5-lipoxygenase (Rattus norvegicus, UniProt P12527); experiment: The compound was tested for inhibitory activity against 5-lipoxygenase using rat polymorphonuclear leukocytes[PMNS]
T1 sequence (P12527 whole entry): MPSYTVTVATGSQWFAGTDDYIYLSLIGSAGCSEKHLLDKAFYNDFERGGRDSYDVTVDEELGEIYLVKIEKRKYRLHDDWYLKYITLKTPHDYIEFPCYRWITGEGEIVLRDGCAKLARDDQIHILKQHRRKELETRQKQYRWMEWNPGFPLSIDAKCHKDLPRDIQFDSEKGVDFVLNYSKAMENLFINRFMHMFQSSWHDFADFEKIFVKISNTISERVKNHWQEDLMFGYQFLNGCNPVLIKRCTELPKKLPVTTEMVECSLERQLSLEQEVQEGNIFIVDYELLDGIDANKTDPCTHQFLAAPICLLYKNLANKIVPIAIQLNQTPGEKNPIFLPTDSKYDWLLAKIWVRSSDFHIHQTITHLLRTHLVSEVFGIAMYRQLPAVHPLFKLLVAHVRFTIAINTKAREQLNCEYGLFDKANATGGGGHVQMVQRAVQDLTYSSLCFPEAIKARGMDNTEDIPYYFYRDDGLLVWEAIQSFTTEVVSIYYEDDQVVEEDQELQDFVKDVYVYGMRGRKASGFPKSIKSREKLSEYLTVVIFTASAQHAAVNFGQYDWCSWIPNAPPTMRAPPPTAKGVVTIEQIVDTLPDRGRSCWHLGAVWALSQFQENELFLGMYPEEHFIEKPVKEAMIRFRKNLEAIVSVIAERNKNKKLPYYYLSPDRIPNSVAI

Cavia porcellus [2] = species on record: Cavia porcellus; experiment: The compound was tested for inhibition of LTD4-induced bronchoconstriction in guinea pig; type: functional
Cyclooxygenase [3] = target: T2, Cyclooxygenase (Rattus norvegicus, UniProt P35355+Q63921); experiment: The compound was tested for inhibitory activity against Prostaglandin G/H synthase in rat polymorphonuclear leukocytes[PMNS]; type: cell-based
T2 sequence (P35355 whole entry): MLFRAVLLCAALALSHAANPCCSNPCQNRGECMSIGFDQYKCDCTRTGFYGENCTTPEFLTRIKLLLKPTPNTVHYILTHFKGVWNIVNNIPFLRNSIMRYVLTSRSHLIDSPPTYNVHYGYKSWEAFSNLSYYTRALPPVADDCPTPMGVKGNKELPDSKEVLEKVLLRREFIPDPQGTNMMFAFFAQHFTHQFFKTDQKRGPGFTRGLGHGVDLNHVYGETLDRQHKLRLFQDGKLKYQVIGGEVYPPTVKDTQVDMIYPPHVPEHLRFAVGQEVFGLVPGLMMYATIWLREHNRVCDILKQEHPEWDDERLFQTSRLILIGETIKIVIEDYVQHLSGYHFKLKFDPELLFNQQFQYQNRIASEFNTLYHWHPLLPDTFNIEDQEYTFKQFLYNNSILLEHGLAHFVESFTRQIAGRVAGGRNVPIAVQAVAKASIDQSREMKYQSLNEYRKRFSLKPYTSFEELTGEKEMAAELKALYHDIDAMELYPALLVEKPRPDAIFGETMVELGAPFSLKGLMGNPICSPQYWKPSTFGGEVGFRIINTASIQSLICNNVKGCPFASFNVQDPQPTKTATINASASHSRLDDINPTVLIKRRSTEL
T2 sequence (Q63921 whole entry): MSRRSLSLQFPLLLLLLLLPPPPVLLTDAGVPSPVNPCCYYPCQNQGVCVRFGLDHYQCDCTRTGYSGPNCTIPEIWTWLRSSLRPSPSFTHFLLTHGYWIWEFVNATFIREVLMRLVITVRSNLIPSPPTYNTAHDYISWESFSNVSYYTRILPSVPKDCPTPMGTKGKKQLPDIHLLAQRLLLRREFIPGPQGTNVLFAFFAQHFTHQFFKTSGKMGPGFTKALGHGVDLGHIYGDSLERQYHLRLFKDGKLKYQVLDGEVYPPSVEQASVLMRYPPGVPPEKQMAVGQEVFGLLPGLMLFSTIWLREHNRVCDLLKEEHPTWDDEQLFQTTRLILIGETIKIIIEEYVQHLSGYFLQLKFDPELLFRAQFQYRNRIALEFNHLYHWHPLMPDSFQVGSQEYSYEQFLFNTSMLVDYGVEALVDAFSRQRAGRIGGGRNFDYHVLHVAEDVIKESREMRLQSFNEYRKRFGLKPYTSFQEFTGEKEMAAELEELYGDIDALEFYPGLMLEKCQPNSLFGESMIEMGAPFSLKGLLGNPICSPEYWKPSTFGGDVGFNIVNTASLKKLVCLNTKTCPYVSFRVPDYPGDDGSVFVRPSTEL

[4] = The compound was tested for inhibitory activity against Leukotriene B4 receptor in mouse mastocytoma
[5] = target: T3, Polyunsaturated fatty acid 5-lipoxygenase (Rattus norvegicus) (UniProt P12527); experiment: The compound was tested for inhibition against 5-lipoxygenase in rat polymorphonuclear leukocytes[PMNS] at 10 uM concentration; type: cell-based
T3 sequence (whole entry): T1 sequence (P12527 whole entry)

[6] = target: T1, Polyunsaturated fatty acid 5-lipoxygenase; experiment: The compound was tested for inhibitory activity against 5-lipoxygenase in rat polymorphonuclear leukocytes[PMNS]; type: cell-based
[7] = target: T1, Polyunsaturated fatty acid 5-lipoxygenase; experiment: The compound was tested for inhibitory activity against 5-Lipoxygenase in rat polymorphonuclear leukocytes[PMNS]; type: cell-based
Cavia porcellus [8] = species on record: Cavia porcellus; experiment: The effective dose for inhibition of LTD4-induced contractions of guinea pig trachea; type: functional
Cavia porcellus [9] = species on record: Cavia porcellus; experiment: The compound was tested for blocking of LTD4-induced contractions of guinea pig trachea; type: functional; conditions: read-out: pA2 (converted)
[10] = target: T4, Cysteinyl leukotriene receptor 1 (Cavia porcellus, UniProt Q2NNR5); experiment: The compound was tested for binding affinity against Cysteinyl leukotriene D4 receptor in a soluble guinea pig LTD4 receptor preparation
T4 sequence (Q2NNR5 whole entry): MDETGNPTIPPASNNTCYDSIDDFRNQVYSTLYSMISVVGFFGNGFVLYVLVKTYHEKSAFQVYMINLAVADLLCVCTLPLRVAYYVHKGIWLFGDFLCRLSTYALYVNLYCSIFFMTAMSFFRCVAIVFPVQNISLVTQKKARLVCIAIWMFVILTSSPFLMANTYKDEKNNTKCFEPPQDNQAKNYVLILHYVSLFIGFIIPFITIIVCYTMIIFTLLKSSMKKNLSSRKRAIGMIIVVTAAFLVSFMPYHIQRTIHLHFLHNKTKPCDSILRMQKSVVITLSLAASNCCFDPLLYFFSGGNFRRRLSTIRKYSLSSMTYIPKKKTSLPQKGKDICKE

[11] = target: T1, Polyunsaturated fatty acid 5-lipoxygenase; experiment: The compound was tested for inhibitory activity against 5-Lipoxygenase in rat RBL-1; type: cell-based
Rattus norvegicus = species on record: Rattus norvegicus; experiment: The compound was tested for inhibition of [3H]LTD4 binding to lung membrane; type: functional
[12] = Compound was tested for spasmogenic activity of LTC4 on lung strips; type: functional
[13] = Compound was tested for spasmogenic activity of LTD4 on lung strips; type: functional
[14] = Compound was tested for spasmogenic activity of LTE4 on lung strips; type: functional
[15] = The effective dose for inhibition of LTD4-induced wheal formation after oral administration; type: functional
[16] = The effective dose for inhibition of anaphylactic death after oral administration; type: functional
[17] = target: T3, Polyunsaturated fatty acid 5-lipoxygenase (Rattus norvegicus); experiment: The compound was tested for inhibition against 5-Lipoxygenase in rat polymorphonuclear leukocytes at 10 uM concentration; type: cell-based
Cyclooxygenase [18] = target: Cyclooxygenase (Homo sapiens, UniProt P35354+P23219); experiment: The compound was tested for inhibitory activity against Prostaglandin G/H synthase in human polymorphonuclear leukocytes[PMNS]; type: cell-based

Work on `Oc1ccccc1OCc1ccc2ccccc2n1` yielded an IC50 [1] of 53000 nM, an Inhibition (Cavia porcellus [2]) of 28% and an IC50 (Cyclooxygenase [3]) of 5820 nM.

In the case of `CCOC(=O)Oc1ccc(/C=C/C=C/C(=O)NCCN2CCC(OC(c3ccccc3)c3ccccc3)CC2)cc1OC` [LINETASTINE], the IC50 [4] is reported as 320 nM.

`O=C(O)CCc1nc(-c2ccc(OCc3ccc4ccccc4n3)cc2)c(-c2ccccc2)o1` showed an Inhibition [5] of 96%.

In the case of `O=C(O)Cc1ccc(-c2ccc(OCc3ccc4ccccc4n3)cc2)c(F)c1`, the Inhibition [5] is reported as 100%.

Compound `CCN(CC)C(=O)N(C)C[C@H](O)c1cccc(OCc2ccc3ccccc3n2)c1` has an IC50 [6] of 2000 nM.

`Cc1ccc(S(=O)(=O)NC(=O)c2cccc(OCc3ccc4ccccc4n3)c2)cc1` gave an IC50 [7] of 3900 nM and an ED50 (Cavia porcellus [8]) of 3 mg/kg.

In the case of `CCCc1c(OCCCCc2nnn[nH]2)ccc(C(C)=O)c1O` [TOMELUKAST], the Kb (Cavia porcellus [9]) is reported as 209 nM and the Ki [10] is reported as 60 nM.

Compound `COc1ccc(-n2nc(CCC(=O)N(C)O)cc2-c2ccc(Cl)cc2)cc1` [TEPOXALIN] has an IC50 [11] of 150 nM.

With `c1cc(Cc2nnn[nH]2)cc(OCc2ccc3ccccc3n2)c1` the IC50 [6] was 6200 nM, the ED50 (Cavia porcellus [8]) was 0.4 mg/kg and the IC50 (Cyclooxygenase [3]) was 13400 nM.

With `CCCCC[C@H](O)c1cccc(OCc2cccc(CC(=O)O)c2)c1` the IC50 [6] was 2500 nM.

With `c1ccc(Cc2nn[nH]n2)c(COc2ccc(OCc3ccc4ccccc4n3)cc2)c1` [RG-12525] the Ki (Rattus norvegicus) was 3 nM, the Kb [12] was 2.7 nM and the Kb [13] was 2.7 nM. The Kb [14] was 2.7 nM, the ED50 [15] was 5 mg/kg and the ED50 [16] was 2.2 mg/kg.

In the case of `CC(C(=O)O)c1ccc2c3cc(OCc4ccc5ccccc5n4)ccc3n(Cc3ccc4ccccc4n3)c2c1` (centres undefined), the Inhibition [17] is reported as 92%.

`CC(C)(C)CC(=O)c1c(CC(C)(C)C(=O)O)n(Cc2ccc(Cl)cc2)c2ccc(OCc3ccc4ccccc4n3)cc12` gave an IC50 (Cyclooxygenase [18]) of 2 nM.
